Test: in vitro
Conditions: human, hela cells

Row | Compound | viability at 28.5 h, 10 µM [%]
1 | O=C(O)c1cc(NC(=O)c2ccc3c(c2)C(=O)N(Cc2ccco2)C3=O)cc(C(=O)O)c1 [CBK267374] | 101

Same assay, conditions: human, hela cells, % viability

Row | Compound | viability at 28.5 h, 10 µM [%]
2 | Cc1nc(C)c(-c2csc(Nc3ccc(C(=O)O)c(O)c3)n2)s1 [CBK267263] | 101
3 | O=C(O)CCNS(=O)(=O)c1cccc(F)c1 [CBK267264] | 115
4 | COc1ccc(NC(S)=NCCN2CCC(C)CC2)cc1Cl [CBK267268] | 84
5 | N#C/C(=C\c1ccc2noc(-c3ccccc3)c2c1)c1nc(-c2cc3ccccc3oc2=O)cs1 [CBK267269] | 90.2
6 | O=[N+]([O-])c1ccccc1S(=O)(=O)N1CCN(c2ccnc3cc(Cl)ccc23)CC1 [CBK267271] | 92.1
7 | CC1CCc2c(sc3nc(SCC(=O)NC(c4ccccc4)c4ccccc4)nc(N)c23)C1 (stereo not shown) [CBK267274] | 91.1
8 | Cc1cc(C)c(C)c(S(=O)(=O)Nc2ccc(C(=O)NCc3ccccn3)cc2)c1C [CBK267275] | 85.8
9 | O=C(Nc1ccccc1N1CCN(C(=O)c2ccc(Cl)cc2)CC1)c1ccc(-c2cc3ccccc3oc2=O)cc1 [CBK267280] | 92.3
10 | CN(C)c1nc(NCc2ccccc2)nc(SCC(=O)Nc2ccc(Cl)c(Cl)c2)n1 [CBK267289] | 97
11 | CC(=O)Nc1ccc(-c2csc(Nc3ccc(S(=O)(=O)Nc4nc(C)cc(C)n4)cc3)n2)cc1 [CBK267295] | 87
12 | C=CCOc1ccc2ccccc2c1CNc1nc[nH]n1 [CBK267296] | 87.9
13 | O=C(NCc1ccccn1)c1ccc(CNS(=O)(=O)c2cccc(Cl)c2)cc1 [CBK267297] | 100
14 | Cc1cc(NS(=O)(=O)c2ccc(Nc3nc(-c4ccc(Cl)cc4Cl)cs3)cc2)no1 [CBK267298] | 104
15 | CC(=O)C1=C(c2ccccc2)NC(=S)NC1c1cc(Cl)ccc1OCC(=O)O (stereo not shown) [CBK267300] | 99.4
16 | Cc1ccc(C)c(S(=O)(=O)NCC(=O)Nc2nsc(-c3ccccc3)n2)c1 [CBK267304] | 97.4
17 | O=C(Nc1ccc(S(=O)(=O)Nc2nccc(C3Cc4ccccc4C(=O)O3)n2)cc1)c1ccccc1 (stereo not shown) [CBK267306] | 105
18 | O=C(CSc1nnc(-c2ccco2)n1-c1ccccc1)NCc1ccc2c(c1)OCO2 [CBK267308] | 85.3
19 | Clc1cccc(-c2nc(NCCCN3CCOCC3)c3ccccc3n2)c1 [CBK267309] | 76
20 | O=[N+]([O-])c1cccc(-c2ccc(-c3nn4c(Cc5ccccc5)nnc4s3)o2)c1 [CBK267310] | 86.4
21 | O=C(CN1CCOCC1)Nc1ccc(Br)cc1[N+](=O)[O-] [CBK267314] | 96.9
22 | O=C(NCCN1CCOCC1)c1cccc(S(=O)(=O)N2CCCC2)c1 [CBK267316] | 98.2

Row | Compound | viability at 28.5 h, 10 µM [%]
23 | CCOc1ccc(-c2cn(C(=O)Nc3ccccc3)nc2N)cc1 [CBK267317] | 90.3
24 | COc1ccc(Cl)cc1NC(=O)CC1NC2CCCCC2NC1=O (stereo not shown) [CBK267318] | 80.4
25 | Nc1ncnc(NCCc2ccc(S(N)(=O)=O)cc2)c1[N+](=O)[O-] [CBK267320] | 86.4
26 | CC(=O)Nc1ccc(NC(=O)COc2c(C)cc(Br)cc2C)cc1 [CBK267321] | 101
27 | C=CCSc1nc(-c2ccc(OCCC)cc2)n[nH]1 [CBK267323] | 100
28 | CC(C)(C)NS(=O)(=O)c1ccc(NC(=O)NC2CCCCC2)cc1 [CBK267324] | 96.7
29 | COc1ccc([N+](=O)[O-])cc1NC(=O)c1ccc(-c2cc3ccccc3oc2=O)cc1 [CBK267325] | 79.1
30 | Cc1ccc(C(=O)O)cc1S(=O)(=O)N1CCC(C(=O)O)CC1 [CBK267327] | 107
31 | O=C(O)CCNS(=O)(=O)c1cccc(Cl)c1 [CBK267328] | 106
32 | Cc1cc(/C=C\c2nc(O)c([N+](=O)[O-])c(=O)[nH]2)c(C)n1-c1ccc(C(=O)O)cc1 [CBK267334] | 96.4
33 | Cc1nc2ccccc2n1CC(=O)NCCN1CCCC1 [CBK267336] | 113
34 | O=C(Nc1ccc(N2CCN(C(=O)c3cccs3)CC2)cc1)c1ccc(-c2cc3ccccc3oc2=O)cc1 [CBK267340] | 96.2
35 | CC1(C)CC(=O)C2=C(C1)Nc1ccccc1N(C(=S)NCc1ccco1)C2c1cccnc1 (stereo not shown) [CBK267342] | 89.4
36 | c1ccc(-c2nnc3sc(-c4ccccn4)nn23)cc1 [CBK267344] | 96.2
37 | CCCn1cc(C(CC(=O)O)C(=O)O)c2ccccc21 (stereo not shown) [CBK267345] | 92.4
38 | Cc1nc(C)c(-c2csc(Nc3ccc(O)cc3C)n2)s1 [CBK267346] | 98.7
39 | CCCCC12CN3CC(C)(CN(C1)C31C(=O)Nc3ccc(Br)cc31)C2=O (stereo not shown) [CBK267348] | 96
40 | Cc1ccc(C)c(NC(=O)C2CN(S(=O)(=O)c3ccccc3)CCN2S(=O)(=O)c2ccccc2)c1 (stereo not shown) [CBK267349] | 93.5
41 | Nc1ncnc(NCCc2ccc(Cl)cc2)c1[N+](=O)[O-] [CBK267351] | 88.3
42 | Cc1nc(N)sc1-c1nnc(Nc2ccccc2)s1 [CBK267353] | 82.7
43 | O=C(O)c1ccc(-c2ccc(/C=C/c3nc(O)c([N+](=O)[O-])c(=O)[nH]3)o2)cc1Cl [CBK267354] | 88.1

Row | Compound | viability at 28.5 h, 10 µM [%]
44 | CC(Oc1ccc(Cl)cc1Cl)C(=O)NC(=S)Nc1ccc2c(c1)C(=O)N(C)C2=O (stereo not shown) [CBK267356] | 93.9
45 | Cc1nc(N)sc1-c1csc(Nc2cccc(C(F)(F)F)c2)n1 [CBK267357] | 95.2
46 | CCc1cc(OCCCSc2nc(C)cc(O)n2)ccc1Cl [CBK267364] | 106
47 | CN(CCCc1nc(-c2ccc(Cl)cc2)no1)S(=O)(=O)c1ccc([N+](=O)[O-])cc1 [CBK267365] | 96
48 | CN1CCN(NC(=O)CN(C)S(=O)(=O)c2cc(Cl)ccc2Cl)CC1 [CBK267366] | 94.2
49 | Cc1cc(C)c2c(c1)C1(C(=O)N2)C(C#N)=C(N)Oc2[nH]nc(-c3ccccc3)c21 (stereo not shown) [CBK267367] | 100
50 | CC(CNC(=O)COc1ccc2ccccc2c1Br)CN(C)C (stereo not shown) [CBK267369] | 94.9
51 | Cc1cc(O)nc(SCCOCCSc2ccc(Cl)cc2)n1 [CBK267372] | 94
52 | CN(CC(=O)NNC(=O)c1ccc(C(C)(C)C)cc1)S(=O)(=O)c1cc(Cl)ccc1Cl [CBK267376] | 107
53 | O=S(=O)(NCc1ccco1)c1ccc2c(c1)Cc1ccccc1-2 [CBK267377] | 95.5
54 | COc1ccc(/C(N)=N/OC(=O)C(C)Oc2ccc(C(C)(C)C)cc2)cc1OC (stereo not shown) [CBK267378] | 94.9
55 | CCN1CCN(CCCOc2ccccc2Cc2ccccc2)CC1 [CBK267379G] | 95
56 | CN(CCCC(=O)Nc1nnc[nH]1)S(=O)(=O)c1ccccc1 [CBK267380] | 82.4
57 | O=C(O)CCCC(=O)Nc1ccc([N+](=O)[O-])cc1O [CBK267384] | 102
58 | CN(Cc1nc(-c2cccnc2)no1)S(=O)(=O)c1ccc2ccccc2c1 [CBK267385] | 87.2
59 | O=C(Nc1ccc(Cl)cc1Cl)NC(Cc1ccc(O)cc1)C(=O)O (stereo not shown) [CBK267386] | 90.9
60 | COc1cc([N+](=O)[O-])ccc1NC(=O)CN(C)S(=O)(=O)c1ccc2ccccc2c1 [CBK267387] | 97.5
61 | CC(O)Cc1nnc(SCC(=O)c2ccc([N+](=O)[O-])cc2)n1-c1ccccc1 (stereo not shown) [CBK267389] | 81.1
62 | O=C(COc1ccc2ccccc2c1Br)NCCN1CCOCC1 [CBK267391] | 89.7
63 | C=CCc1cc(C)cc(C)c1OCCN1CCN(CC)CC1 [CBK267392G] | 93.7
64 | Nc1nc(CSc2nnc(-c3ccccc3O)n2Cc2ccccc2)cs1 [CBK267394] | 90.4

Row | Compound | viability at 28.5 h, 10 µM [%]
65 | COc1cc(OC)c(NC(=O)CN(C)S(=O)(=O)c2cc(Cl)ccc2Cl)cc1Cl [CBK267399] | 91.3
66 | O=C(O)CCN1C(=O)c2ccc(Oc3ccc(NC(=O)c4ccc(Cl)c(Cl)c4)cc3)cc2C1=O [CBK267400] | 90.6
67 | O=C(O)CCC(=O)Nc1ccc(-c2nc3cc(C(=O)c4ccccc4)ccc3[nH]2)cc1 [CBK267401] | 100
68 | Cc1cc(=O)oc2cc(OCc3ccc(S(=O)(=O)N4CCOCC4)cc3)ccc12 [CBK267402] | 91.3
69 | COc1cc2c(cc1NC(=O)CN(C)S(=O)(=O)c1ccc(Cl)cc1)oc1ccccc12 [CBK267404] | 93.6
70 | O=C(Nc1ccc(Cl)cc1)NC(C(=O)O)c1ccccc1 (stereo not shown) [CBK267405] | 94.9
71 | Cc1ccccc1OCc1nnc(SCc2nnc(-c3ccccc3)o2)n1C [CBK267406] | 90.1
72 | Cc1cc(O)nc(SCCCSc2ccccc2)n1 [CBK267415] | 114
73 | Cc1c(Cl)cc(C(C)C)c(O)c1CNC(=O)CSc1nnc(-c2cccs2)n1C [CBK267416] | 94.6
74 | Nc1nnc(SCC(=O)NC23CC4CC(CC(C4)C2)C3)s1 [CBK267417] | 97.1
75 | COCCCNCC#CCOc1ccccc1OC [CBK267419G] | 94.5
76 | Cc1ccc(OCc2nnc(SCc3cccc(C#N)c3)n2N)cc1C [CBK267420] | 84.1
77 | Cc1ccc(C23CC4CC(CC(NC(=O)NC(Cc5ccccc5)C(=O)O)(C4)C2)C3)cc1 (stereo not shown) [CBK267423] | 93.7
78 | O=C(CSc1nnc(-c2ccccc2)n1C1CCCCC1)Nc1ccc(Cl)cc1Cl [CBK267424] | 100
79 | Cn1c(COc2ccccc2)nnc1SCC(=O)c1ccc(-c2ccccc2)cc1 [CBK267426] | 87.9
80 | COc1ccc(OC)c(NC(=O)CSc2nnc(-c3ccco3)o2)c1 [CBK267429] | 98.3
81 | CN(CC(=O)Nc1nnc[nH]1)S(=O)(=O)c1cc(Cl)ccc1Cl [CBK267433] | 97
82 | O=C(CSCc1c(Cl)cccc1Cl)Nc1cccc(-c2nnc(-c3ccccc3)o2)c1 [CBK267435] | 96.7
83 | NS(=O)(=O)c1ccc(CCNC2CC(=O)N(Cc3ccccc3)C2=O)cc1 (stereo not shown) [CBK267439] | 90.5
84 | COC(=O)C(O)(CC(=O)Nc1ccc(C)c(F)c1)C(F)(F)F (stereo not shown) [CBK267440] | 103
85 | CCOC(=O)NC(=O)CSc1nc2ccccc2[nH]1 [CBK267443] | 91.9
